Literature values as cited in publication PMC7604311, “Caprine Bactenecins as Promising Tools for Developing New Antimicrobial and Antitumor Drugs” (Frontiers in Cellular and Infection Microbiology, 2020).

Assays:
Parameters in all cases: key to Susceptibility category: R – resistant; I – intermediate; S – susceptible
Conditions in all cases: initial susceptibility testing of the clinical isolate; ref supplying institutions; cited from earlier work
[1] = tested on: E. coli ESBL 521/17
[2] = tested on: K. pneumoniae ESBL 344/17;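 also: each antibiotic is scored as S (susceptible), I (intermediate) or R (resistant), with its MIC listed alongside, in a susceptibility profile of the clinical isolate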
[3] = tested on: S. aureus 1399/17
[4] = tested on: P. aeruginosa MDR 522/17
[5] = tested on: A. baumannii 7226/16
From the text: page 1: Supplementary Material Supplementary Table 1. Susceptibility profiles of tested clinical isolates of bacteria. Gram-negative: Gram-positive: antibiotic E. coli A. baumannii P. aeruginosa K. pneumoniae antibiotic S. aureus ESBL 521/17 7226/16 MDR 522/17 ESBL 344/17 1399/17 AMP* R [≥32] R [≥32 ] R [≥32 ] R [≥32] AMP* R [≥32 ] AMC R [16] - - S [≤2] AMC - CTX R [≥64] - - S [≤1] AMX - CAZ R [≥64] - R [≥64] S [≤1] AZM R [≥4] FEP R [≥64] - R [≥64] S [≤1] VAN S [≤2] ATM R [≥64] - - S [≤1] DOX I [2] IPM S [≤1] R [≥16] I [8] S [≤1] CLI I [2] MEM S [≤0.25 ] R [≥32 ] R [≥16] S [≤0.25] MEM I [4] AM ...

Molecule | MIC of antibiotic [1] [µg/mL] | Susceptibility category [1] | MIC of antibiotic [2] [µg/mL] | Susceptibility category [2] | MIC of antibiotic [3] [µg/mL] | Susceptibility category [3] | MIC of antibiotic [4] [µg/mL] | Susceptibility category [4] | MIC of antibiotic [5] [µg/mL] | Susceptibility category [5]
amoxicillin–clavulanic acid [AMC] | 16 | R | ≤ 2 | S | – | – | – | – | – | –
CNC(C)C1CCC(N)C(OC2C(N)CC(N)C(OC3OCC(C)(O)C(NC)C3O)C2O)O1 (stereo not shown) [GEN, gentamicin] | ≤ 1 | S | ≤ 1 | S | ≥ 32 | R | ≥ 16 | R | ≥ 16 | R
CCN[C@@H]1C[C@H](N)[C@@H](O[C@H]2OC(CN)=CC[C@H]2N)[C@H](O)[C@H]1O[C@H]1OC[C@](C)(O)[C@H](NC)[C@H]1O [NET, netilmicin] | 8 | R | ≤ 1 | S | – | – | ≥ 32 | R | – | –
trimethoprim–sulfamethoxazole [SXT] | ≥ 320 | R | ≤ 20 | S | – | – | – | – | ≥ 320 | R
C[C@@H]1O[C@@H]1P(=O)(O)O [FOF, fosfomycin] | ≤ 16 | S | ≤ 16 | S | – | – | – | – | – | –
CN(C)c1cc(NC(=O)CNC(C)(C)C)c(O)c2c1C[C@H]1C[C@H]3[C@H](N(C)C)C(O)=C(C(N)=O)C(=O)[C@@]3(O)C(O)=C1C2=O [TGC, tigecycline] | – | – | – | – | – | – | – | – | 4 | I
CC[C@H]1OC(=O)[C@H](C)[C@@H](O[C@H]2C[C@@](C)(OC)[C@@H](O)[C@H](C)O2)[C@H](C)[C@@H](O[C@@H]2O[C@H](C)C[C@H](N(C)C)[C@H]2O)[C@](C)(O)C[C@@H](C)/C(=N\OCOCCOC)[C@H](C)[C@@H](O)[C@]1(C)O [RXM, roxithromycin] | – | – | – | – | 2 | I | – | – | – | –
CC1COc2c(N3CCN(C)CC3)c(F)cc3c(=O)c(C(=O)O)cn1c23 (stereo not shown) [OFL, ofloxacin] | – | – | – | – | ≥ 32 | R | – | – | – | –
colistin [CST] | ≤ 0.5 | S | ≤ 0.5 | S | – | – | ≥ 16 | R | – | –
C[C@H]1c2cccc(O)c2C(=O)C2=C(O)[C@]3(O)C(=O)C(C(N)=O)=C(O)[C@@H](N(C)C)[C@@H]3[C@@H](O)[C@@H]21 [DOX, doxycycline] | – | – | – | – | 2 | I | – | – | – | –
C[C@H]1[C@H](NC(=O)/C(=N\OC(C)(C)C(=O)O)c2csc(N)n2)C(=O)N1S(=O)(=O)O [ATM, aztreonam] | ≥ 64 | R | ≤ 1 | S | – | – | – | – | – | –
CC[C@H]1OC(=O)[C@H](C)[C@@H](O[C@H]2C[C@@](C)(OC)[C@@H](O)[C@H](C)O2)[C@H](C)[C@@H](O[C@@H]2O[C@H](C)C[C@H](N(C)C)[C@H]2O)[C@](C)(O)C[C@@H](C)C(=O)[C@H](C)[C@@H](O)[C@]1(C)O [ERY, erythromycin] | ≥ 32 | R | ≥ 32 | R | ≥ 32 | R | ≥ 32 | R | ≥ 32 | R
CC1(C)S[C@@H]2[C@H](NC(=O)[C@H](N)c3ccccc3)C(=O)N2[C@H]1C(=O)O [AMP*, ampicillin] | ≥ 32 | R | ≥ 32 | R | ≥ 32 | R | ≥ 32 | R | ≥ 32 | R
O=C1CN(/N=C/c2ccc([N+](=O)[O-])o2)C(=O)N1 [NIT, nitrofurantoin] | 128 | R | – | – | – | – | – | – | – | –
CCC[C@@H]1C[C@@H](C(=O)N[C@@H]([C@H]2O[C@H](SC)[C@H](O)[C@@H](O)[C@H]2O)[C@H](C)Cl)N(C)C1 [CLI, clindamycin] | – | – | – | – | 2 | I | – | – | – | –
CN[C@H](CC(C)C)C(=O)N[C@H]1C(=O)N[C@@H](CC(N)=O)C(=O)N[C@H]2C(=O)N[C@H]3C(=O)N[C@H](C(=O)N[C@H](C(=O)O)c4cc(O)cc(O)c4-c4cc3ccc4O)[C@H](O)c3ccc(c(Cl)c3)Oc3cc2cc(c3O[C@@H]2O[C@H](CO)[C@@H](O)[C@H](O)[C@H]2O[C@H]2C[C@](C)(N)[C@H](O)[C@H](C)O2)Oc2ccc(cc2Cl)[C@H]1O [VAN, vancomycin] | – | – | – | – | ≤ 2 | S | – | – | – | –
C[C@@H](O)[C@H]1C(=O)N2C(C(=O)O)=C(SCCN=CN)C[C@H]12 [IPM, imipenem] | ≤ 1 | S | ≤ 1 | S | – | – | 8 | I | ≥ 16 | R
CO/N=C(\C(=O)N[C@@H]1C(=O)N2C(C(=O)O)=C(COC(C)=O)CS[C@H]12)c1csc(N)n1 [CTX, cefotaxime] | ≥ 64 | R | ≤ 1 | S | – | – | – | – | – | –
ampicillin-sulbactam [SAM] | – | – | – | – | – | – | – | – | 16 | I
C[C@H]1COc2c(N3CCN(C)CC3)c(F)cc3c(=O)c(C(=O)O)cn1c23 [LVX, levofloxacin] | – | – | – | – | ≤ 1 | S | – | – | – | –
CC[C@H]1OC(=O)[C@H](C)[C@@H](O[C@H]2C[C@@](C)(OC)[C@@H](O)[C@H](C)O2)[C@H](C)[C@@H](O[C@@H]2O[C@H](C)C[C@H](N(C)C)[C@H]2O)[C@](C)(O)C[C@@H](C)CN(C)[C@H](C)[C@@H](O)[C@]1(C)O [AZM, azithromycin] | – | – | – | – | ≥ 4 | R | – | – | – | –
Cc1onc(-c2ccccc2)c1C(=O)N[C@@H]1C(=O)N2[C@@H]1SC(C)(C)[C@@H]2C(=O)O [OX, oxacillin] | – | – | – | – | ≥ 32 | R | – | – | – | –
CC(C)(O/N=C(\C(=O)N[C@@H]1C(=O)N2C(C(=O)[O-])=C(C[n+]3ccccc3)CS[C@H]12)c1csc(N)n1)C(=O)O [CAZ, ceftazidime] | ≥ 64 | R | ≤ 1 | S | – | – | ≥ 64 | R | – | –
CO/N=C(\C(=O)N[C@@H]1C(=O)N2C(C(=O)[O-])=C(C[N+]3(C)CCCC3)CS[C@H]12)c1csc(N)n1 [FEP, cefepime] | ≥ 64 | R | ≤ 1 | S | – | – | ≥ 64 | R | – | –
